# Test results from patent US10196403B2, “Compounds and compositions and uses thereof” (Sunovion Pharmaceuticals Inc., priority 2016, dated 2019).
# Where two headings read alike, the source gives them in different places.
# Test system: mice
# Test: Neuropharmacological Assay (SmartCube)
# Format: in vivo
# Details: for minimal effective dose: Mus musculus, read-out: POTENCY (minimal effective dose, MED); for AD: ADHD (SmartCube probability) / AG: analgesic (SmartCube probability) / AX: anxiolytic (SmartCube probability) / CE: cognitive enhancer (SmartCube probability) / DP: anti-depressant (SmartCube probability) / MS: mood stabilizer (SmartCube probability) / PS: anti-psychotic (SmartCube probability) / SD: sedative hypnotic (SmartCube probability) / UN: uncharacterized CNS activity (SmartCube probability): mice, i.p. 15 min before test, most efficacious dose(s) of 3 doses
# How it was run: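 Behavior of treated mice captured by digital video and matched algorithmically against reference drug classes, yielding a class probability at the most efficacious of 3 i.p. doses (15 min pretreatment, NMP/PEG/propylene glycol vehicle). Potency given as MED, the mpk dose reaching ≥50% total activity across usually 0.3–30 mpk.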
# [1] = MED = dose having 50% or more total activity in SmartCube
smiles,measurement,setting,value
CNC[C@@H]1OCCc2c1cccc2C(F)(F)F [Example 79],minimal effective dose,[1],< 3 mg/kg
same,AD: ADHD (SmartCube probability),,++ (5%≤ ++ <25%)
same,AG: analgesic (SmartCube probability),,+ (LOQ≤ + <5%)
same,AX: anxiolytic (SmartCube probability),,+ (LOQ≤ + <5%)
same,CE: cognitive enhancer (SmartCube probability),,+ (LOQ≤ + <5%)
same,DP: anti-depressant (SmartCube probability),,++++ (50%≤ ++++)
same,MS: mood stabilizer (SmartCube probability),,+ (LOQ≤ + <5%)
same,PS: anti-psychotic (SmartCube probability),,+ (LOQ≤ + <5%)
same,SD: sedative hypnotic (SmartCube probability),,++ (5%≤ ++ <25%)
same,UN: uncharacterized CNS activity (SmartCube probability),,+ (LOQ≤ + <5%)
"CNC[C@@H]1OCCc2cc(Cl)ccc21 [Example 81, (R)-1-(6-chloroisochroman-1-yl)-N-methylmethanamine]",minimal effective dose,[1],< 3 mg/kg
same,AD: ADHD (SmartCube probability),,++ (5%≤ ++ <25%)
same,AG: analgesic (SmartCube probability),,+ (LOQ≤ + <5%)
same,AX: anxiolytic (SmartCube probability),,++ (5%≤ ++ <25%)
same,CE: cognitive enhancer (SmartCube probability),,+ (LOQ≤ + <5%)
same,DP: anti-depressant (SmartCube probability),,++++ (50%≤ ++++)
same,MS: mood stabilizer (SmartCube probability),,+ (LOQ≤ + <5%)
same,PS: anti-psychotic (SmartCube probability),,+ (LOQ≤ + <5%)
same,SD: sedative hypnotic (SmartCube probability),,+ (LOQ≤ + <5%)
same,UN: uncharacterized CNS activity (SmartCube probability),,++ (5%≤ ++ <25%)
"Fc1cccc2c1[C@@H](CNC1CCC1)OCC2 [Example 96, (S)-N-((8-fluoroisochroman-1-yl)methyl)cyclobutanamine]",minimal effective dose,,10 to 30 mg/kg
same,AD: ADHD (SmartCube probability),,+ (LOQ≤ + <5%)
same,AG: analgesic (SmartCube probability),,+ (LOQ≤ + <5%)
same,AX: anxiolytic (SmartCube probability),,+ (LOQ≤ + <5%)
same,CE: cognitive enhancer (SmartCube probability),,+ (LOQ≤ + <5%)
same,DP: anti-depressant (SmartCube probability),,+ (LOQ≤ + <5%)
same,MS: mood stabilizer (SmartCube probability),,+ (LOQ≤ + <5%)
same,PS: anti-psychotic (SmartCube probability),,+ (LOQ≤ + <5%)
same,SD: sedative hypnotic (SmartCube probability),,+++ (25%≤ +++ <50%)
same,UN: uncharacterized CNS activity (SmartCube probability),,+ (LOQ≤ + <5%)
"CNC[C@@H]1OCCc2c(C#N)cccc21 [Example 47, (R)-1-((methylamino)methyl)isochromane-5-carbonitrile]",minimal effective dose,[1],3 to 10 mg/kg
same,AD: ADHD (SmartCube probability),,+ (LOQ≤ + <5%)
same,AG: analgesic (SmartCube probability),,+ (LOQ≤ + <5%)
same,AX: anxiolytic (SmartCube probability),,++ (5%≤ ++ <25%)
same,CE: cognitive enhancer (SmartCube probability),,+ (LOQ≤ + <5%)
same,DP: anti-depressant (SmartCube probability),,++++ (50%≤ ++++)
same,MS: mood stabilizer (SmartCube probability),,+ (LOQ≤ + <5%)
same,PS: anti-psychotic (SmartCube probability),,++ (5%≤ ++ <25%)
same,SD: sedative hypnotic (SmartCube probability),,++ (5%≤ ++ <25%)
same,UN: uncharacterized CNS activity (SmartCube probability),,++ (5%≤ ++ <25%)
"CNC[C@@H]1OCc2cccc(F)c21 [Example 69, (R)-1-(7-fluoro-1,3-dihydroisobenzofuran-1-yl)-N-methylmethanamine]",minimal effective dose,[1],< 3 mg/kg
same,AD: ADHD (SmartCube probability),,++ (5%≤ ++ <25%)
same,AG: analgesic (SmartCube probability),,+++ (25%≤ +++ <50%)
same,AX: anxiolytic (SmartCube probability),,++ (5%≤ ++ <25%)
same,CE: cognitive enhancer (SmartCube probability),,+ (LOQ≤ + <5%)
same,DP: anti-depressant (SmartCube probability),,++ (5%≤ ++ <25%)
same,MS: mood stabilizer (SmartCube probability),,++ (5%≤ ++ <25%)
same,PS: anti-psychotic (SmartCube probability),,++ (5%≤ ++ <25%)
same,SD: sedative hypnotic (SmartCube probability),,+ (LOQ≤ + <5%)
same,UN: uncharacterized CNS activity (SmartCube probability),,++++ (50%≤ ++++)
"NC[C@@H]1OCCc2c(Cl)cccc21 [Example 67, (R)-(5-chloroisochroman-1-yl)methanamine]","POTENCY (minimal effective dose, MED)",[1],A-B
same,AD: ADHD (SmartCube probability),,+ (LOQ≤ + <5%)
same,AG: analgesic (SmartCube probability),,+ (LOQ≤ + <5%)
same,AX: anxiolytic (SmartCube probability),,++ (5%≤ ++ <25%)
same,CE: cognitive enhancer (SmartCube probability),,+ (LOQ≤ + <5%)
same,DP: anti-depressant (SmartCube probability),,++++ (50%≤ ++++)
same,MS: mood stabilizer (SmartCube probability),,+ (LOQ≤ + <5%)
same,PS: anti-psychotic (SmartCube probability),,++ (5%≤ ++ <25%)
same,SD: sedative hypnotic (SmartCube probability),,+ (LOQ≤ + <5%)
same,UN: uncharacterized CNS activity (SmartCube probability),,+ (LOQ≤ + <5%)
"CNC[C@H]1OCCc2c(O)cc3c(c21)OCO3 (single isomer, unassigned) [Example 104]",minimal effective dose,[1],< 3 mg/kg
same,AD: ADHD (SmartCube probability),,+ (LOQ≤ + <5%)
same,AG: analgesic (SmartCube probability),,+ (LOQ≤ + <5%)
same,AX: anxiolytic (SmartCube probability),,+++ (25%≤ +++ <50%)
same,CE: cognitive enhancer (SmartCube probability),,++ (5%≤ ++ <25%)
same,DP: anti-depressant (SmartCube probability),,++++ (50%≤ ++++)
same,MS: mood stabilizer (SmartCube probability),,+ (LOQ≤ + <5%)
same,PS: anti-psychotic (SmartCube probability),,+ (LOQ≤ + <5%)
same,SD: sedative hypnotic (SmartCube probability),,++ (5%≤ ++ <25%)
same,UN: uncharacterized CNS activity (SmartCube probability),,++ (5%≤ ++ <25%)
"CNC[C@H]1OCCc2c(C#N)cccc21 [Example 46, (S)-1-((methylamino)methyl)isochromane-5-carbonitrile]",minimal effective dose,[1],3 to 10 mg/kg
same,AD: ADHD (SmartCube probability),,+ (LOQ≤ + <5%)
same,AG: analgesic (SmartCube probability),,+ (LOQ≤ + <5%)
same,AX: anxiolytic (SmartCube probability),,++ (5%≤ ++ <25%)
same,CE: cognitive enhancer (SmartCube probability),,++ (5%≤ ++ <25%)
same,DP: anti-depressant (SmartCube probability),,++ (5%≤ ++ <25%)
same,MS: mood stabilizer (SmartCube probability),,+ (LOQ≤ + <5%)
same,PS: anti-psychotic (SmartCube probability),,++ (5%≤ ++ <25%)
same,SD: sedative hypnotic (SmartCube probability),,++ (5%≤ ++ <25%)
same,UN: uncharacterized CNS activity (SmartCube probability),,+++ (25%≤ +++ <50%)
"CNC[C@@H]1OC[C@H](O)c2cccc(F)c21 [Example 99, (1R,4R)-8-fluoro-1-((methylamino)methyl)isochroman-4-ol]",minimal effective dose,[1],10 to 30 mg/kg
same,AD: ADHD (SmartCube probability),,+ (LOQ≤ + <5%)
same,AG: analgesic (SmartCube probability),,+ (LOQ≤ + <5%)
same,AX: anxiolytic (SmartCube probability),,++ (5%≤ ++ <25%)
same,CE: cognitive enhancer (SmartCube probability),,+ (LOQ≤ + <5%)
same,DP: anti-depressant (SmartCube probability),,+ (LOQ≤ + <5%)
same,MS: mood stabilizer (SmartCube probability),,+ (LOQ≤ + <5%)
same,PS: anti-psychotic (SmartCube probability),,++ (5%≤ ++ <25%)
same,SD: sedative hypnotic (SmartCube probability),,++ (5%≤ ++ <25%)
same,UN: uncharacterized CNS activity (SmartCube probability),,+++ (25%≤ +++ <50%)
"CNC[C@@H]1OC[C@H](O)c2ccc3c(c21)OCO3 (single isomer, unassigned) [Example 114]",minimal effective dose,[1],10 to 30 mg/kg
same,AD: ADHD (SmartCube probability),,+ (LOQ≤ + <5%)
same,AG: analgesic (SmartCube probability),,+ (LOQ≤ + <5%)
same,AX: anxiolytic (SmartCube probability),,++ (5%≤ ++ <25%)
same,CE: cognitive enhancer (SmartCube probability),,+ (LOQ≤ + <5%)
same,DP: anti-depressant (SmartCube probability),,+ (LOQ≤ + <5%)
same,MS: mood stabilizer (SmartCube probability),,+ (LOQ≤ + <5%)
same,PS: anti-psychotic (SmartCube probability),,++ (5%≤ ++ <25%)
same,SD: sedative hypnotic (SmartCube probability),,+ (LOQ≤ + <5%)
same,UN: uncharacterized CNS activity (SmartCube probability),,+++ (25%≤ +++ <50%)
"CNC[C@H]1OCCc2cc3c(cc21)OCO3 (stereo in doubt) [Example 5, (S)-1-(7,8-dihydro-5H-[1,3]dioxolo[4,5-g]isochromen-5-yl)-N-methylmethanamine]",minimal effective dose,[1],> 30 mg/kg
same,AD: ADHD (SmartCube probability),,+ (LOQ≤ + <5%)
same,AG: analgesic (SmartCube probability),,++ (5%≤ ++ <25%)
same,AX: anxiolytic (SmartCube probability),,++ (5%≤ ++ <25%)
same,CE: cognitive enhancer (SmartCube probability),,+ (LOQ≤ + <5%)
same,DP: anti-depressant (SmartCube probability),,+ (LOQ≤ + <5%)
same,MS: mood stabilizer (SmartCube probability),,+ (LOQ≤ + <5%)
same,PS: anti-psychotic (SmartCube probability),,+ (LOQ≤ + <5%)
same,SD: sedative hypnotic (SmartCube probability),,+ (LOQ≤ + <5%)
same,UN: uncharacterized CNS activity (SmartCube probability),,+ (LOQ≤ + <5%)
"CCNC[C@@H]1OCCc2cccc(F)c21 [Example 87, (R)-N-((8-fluoroisochroman-1-yl)methyl)ethanamine]",minimal effective dose,[1],< 3 mg/kg
same,AD: ADHD (SmartCube probability),,+ (LOQ≤ + <5%)
same,AG: analgesic (SmartCube probability),,++ (5%≤ ++ <25%)
same,AX: anxiolytic (SmartCube probability),,++ (5%≤ ++ <25%)
same,CE: cognitive enhancer (SmartCube probability),,+ (LOQ≤ + <5%)
same,DP: anti-depressant (SmartCube probability),,++ (5%≤ ++ <25%)
same,MS: mood stabilizer (SmartCube probability),,+ (LOQ≤ + <5%)
same,PS: anti-psychotic (SmartCube probability),,++ (5%≤ ++ <25%)
same,SD: sedative hypnotic (SmartCube probability),,+ (LOQ≤ + <5%)
same,UN: uncharacterized CNS activity (SmartCube probability),,++++ (50%≤ ++++)
"NC[C@H]1OCCc2cccc(Cl)c21 [Example 70, (S)-(8-chloroisochroman-1-yl)methanamine]",minimal effective dose,[1],3 to 10 mg/kg
same,AD: ADHD (SmartCube probability),,+ (LOQ≤ + <5%)
same,AG: analgesic (SmartCube probability),,++ (5%≤ ++ <25%)
same,AX: anxiolytic (SmartCube probability),,++ (5%≤ ++ <25%)
same,CE: cognitive enhancer (SmartCube probability),,++ (5%≤ ++ <25%)
same,DP: anti-depressant (SmartCube probability),,++ (5%≤ ++ <25%)
same,MS: mood stabilizer (SmartCube probability),,+ (LOQ≤ + <5%)
same,PS: anti-psychotic (SmartCube probability),,+++ (25%≤ +++ <50%)
same,SD: sedative hypnotic (SmartCube probability),,++ (5%≤ ++ <25%)
same,UN: uncharacterized CNS activity (SmartCube probability),,+++ (25%≤ +++ <50%)
"CNC[C@H]1OCCc2c(OC)cccc21 [Example 62, (S)-1-(5-methoxyisochroman-1-yl)-N-methylmethanamine]",minimal effective dose,[1],10 to 30 mg/kg
same,AD: ADHD (SmartCube probability),,+ (LOQ≤ + <5%)
same,AG: analgesic (SmartCube probability),,++ (5%≤ ++ <25%)
same,AX: anxiolytic (SmartCube probability),,++++ (50%≤ ++++)
same,CE: cognitive enhancer (SmartCube probability),,+ (LOQ≤ + <5%)
same,DP: anti-depressant (SmartCube probability),,+ (LOQ≤ + <5%)
same,MS: mood stabilizer (SmartCube probability),,+ (LOQ≤ + <5%)
same,PS: anti-psychotic (SmartCube probability),,+ (LOQ≤ + <5%)
same,SD: sedative hypnotic (SmartCube probability),,+ (LOQ≤ + <5%)
same,UN: uncharacterized CNS activity (SmartCube probability),,++ (5%≤ ++ <25%)
"CNC[C@@H]1OCCc2c(OC)cccc21 [Example 63, (R)-1-(5-methoxyisochroman-1-yl)-N-methylmethanamine]","POTENCY (minimal effective dose, MED)",[1],A-B
same,AD: ADHD (SmartCube probability),,++ (5%≤ ++ <25%)
same,AG: analgesic (SmartCube probability),,+ (LOQ≤ + <5%)
same,AX: anxiolytic (SmartCube probability),,++ (5%≤ ++ <25%)
same,CE: cognitive enhancer (SmartCube probability),,+ (LOQ≤ + <5%)
same,DP: anti-depressant (SmartCube probability),,++++ (50%≤ ++++)
same,MS: mood stabilizer (SmartCube probability),,+ (LOQ≤ + <5%)
same,PS: anti-psychotic (SmartCube probability),,+ (LOQ≤ + <5%)
same,SD: sedative hypnotic (SmartCube probability),,++ (5%≤ ++ <25%)
same,UN: uncharacterized CNS activity (SmartCube probability),,++++ (50%≤ ++++)
